Measured values as given in US8436035B2, “Organic compounds” (Novartis AG, priority 2006, dated 2013).

Legend:
[1] = target: T1, CYP11B1 (Homo sapiens, UniProt P15538); test: in vitro CYP11B1 inhibition, steroid release from NCI-H295R cells; format: cell-based; conditions: for inhibition at 0.1 µM: NCI-H295R, read-out: 11B1 % I @ 100 nM
T1 construct: Thus, the NCI-H295R cells have Cyp11 B1 (steroid 11 p-hydroxylase); host or cells: NCI-H295R
T1 sequence (P15538 25-503): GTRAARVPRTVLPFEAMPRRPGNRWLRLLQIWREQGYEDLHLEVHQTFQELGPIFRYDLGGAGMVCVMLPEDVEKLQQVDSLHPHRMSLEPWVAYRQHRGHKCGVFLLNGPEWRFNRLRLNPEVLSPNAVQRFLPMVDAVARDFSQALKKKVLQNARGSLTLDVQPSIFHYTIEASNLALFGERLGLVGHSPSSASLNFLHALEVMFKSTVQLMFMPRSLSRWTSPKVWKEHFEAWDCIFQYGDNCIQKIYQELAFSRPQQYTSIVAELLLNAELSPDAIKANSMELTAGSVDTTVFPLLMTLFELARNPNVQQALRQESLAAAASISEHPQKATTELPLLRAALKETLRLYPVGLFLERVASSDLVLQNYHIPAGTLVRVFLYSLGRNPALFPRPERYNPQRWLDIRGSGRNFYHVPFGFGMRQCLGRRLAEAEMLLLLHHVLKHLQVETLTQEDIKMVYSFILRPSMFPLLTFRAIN
Excerpt: The in vitro inhibitory activities for CYP11B1 can be determined by the following assay.
The cell line NCI-H295R was originally isolated from an adrenocortical carcinoma and has been characterized in the literature through the stimulable secretion of steroid hormones and the presence of the enzymes essential for steroidogenesis. Thus, the NCI-H295R cells have Cyp11 B1 (steroid 11 p-hydroxylase). The cells show the physiological property of zonally undifferentiated human foetal adrenocortical cells which, however, have the capacity to produce the steroid hormones which are formed in the three, phenotypically distinguishable zones in the adult adrenal cortex.
The NCI-H295R cells (American Type Culture Collection, ATCC, Rockville, Md., USA) are grown in Dulbeoco's Modified Eagle'Ham F-12 Medium (DME/F12), which has been I supplemented with Ulroser SF Serum (Soprachem, Cergy-Saint-Christophe, France), insulin, transferrin, selenite (I-T-S, Becton Dickinson Biosciences, Franklin lakes, NJ, USA) and antibiotics in 75 cm^2 cell culture vessels at 37° C. and in a 95% air-5% carbon dioxide atmosphere. The cells are subsequently transferred for colony formation into a 24-well incubation vessel. They are cultivated there in DME/F12 medium, which is now supplemented with 0.1% bovine serum instead of Ultroser SF for 24 hours. The experiment is initiated by cultivating the cells in DME/F12 medium which is supplemented with 0.1% bovine serum albumin and test compound, in the presence or absence of cell stimulants, for 72 hours. The test substance is added in a concentration range from 0.2 nanomolar to […]. Cell stimulants which can be used are angiotensin 11 ([…] or 100 nanomolar), potassium ions (16 millimolar), forskolin (10 micromolar) or a combination of two stimulants.
The excretion of aldosterone, cortisol, corticosterone and estradiol/estrone into the culture medium can be detected and quantified by commercially available, specific monoclonal antibodies in radioimmunoassays in accordance with the manufacturer's instructions.
Inhibition of the release of certain steroids can be used as a measure of the respective enzyme inhibition by the added test compounds. The dose-dependent inhibition of enzymic activity by a compound is calculated by means of an inhibition plot which is characterized by an IC50.
The IC50 values for active test compounds are ascertained by a […] in order to construct inhibition plots without data weighting. The inhibition plot is calculated by fting a 4-parameter logistic function to the raw data points using the least squares method. The equation of the 4-parameter logistic function is calculated as follows: Y=(d−a)/((1+(x/c)b))+a I where: a=minimum data level b=gradient I c=ICED, d=maximum data level x=inhibitor concentration.

[2] = target: T2, aldosterone synthase (CYP11B2) (Homo sapiens, UniProt P19099); test: in vitro aldosterone synthase inhibition, aldosterone production in Ang II-stimulated NCI-H295R cells; format: cell-based; conditions: read-out: AS IC50
T2 construct: host or cells: NCI-H295R
T2 sequence (P19099 25-503): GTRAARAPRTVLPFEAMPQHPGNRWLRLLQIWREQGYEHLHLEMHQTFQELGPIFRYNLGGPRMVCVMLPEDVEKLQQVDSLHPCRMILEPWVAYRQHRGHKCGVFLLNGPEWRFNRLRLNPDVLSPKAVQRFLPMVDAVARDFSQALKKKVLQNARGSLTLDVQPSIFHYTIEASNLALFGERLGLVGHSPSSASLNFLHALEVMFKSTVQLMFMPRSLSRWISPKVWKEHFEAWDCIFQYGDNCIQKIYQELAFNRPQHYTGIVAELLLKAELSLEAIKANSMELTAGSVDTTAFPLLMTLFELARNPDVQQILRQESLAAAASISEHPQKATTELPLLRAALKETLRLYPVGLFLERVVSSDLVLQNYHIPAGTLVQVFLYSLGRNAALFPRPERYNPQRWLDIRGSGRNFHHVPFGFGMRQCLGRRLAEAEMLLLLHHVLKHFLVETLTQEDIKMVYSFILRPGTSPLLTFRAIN
Excerpt: In particular, the aldosterone synthase inhibitory activities in vitro can be determined by the following assay.
Human adrenocortical carcinoma NCI-H295R cell line is obtained from American Type Culture Collection (Manassas, Va.). Insulin/transferrin/selenium (ITS)-A supplement (100×), DMEM/F-12, antibiotic/antimycotic (100×), and fetal calf serum (FCS) are purchased from Gibco (Grand Island, N.Y.). Anti-mouse PVT scintillation proximity assay (SPA) beads and NBS 96-well plates are obtained from Amersham (Piscataway, N.J.) and Corning (Acton, Mass.), respectively. Solid black 96-well flat bottom plates were purchased from Costar (Corning, N.Y.). Aldosterone and angiotensin (Ang II) are purchased from Sigma (St. Louis, Mo.). D-[1,2,6,7-^3H(N)]aldosterone was acquired from PerkinElmer (Boston, Mass.). Nu-serum was a product of BD Biosciences (Franklin Lakes, N.J.).
For in vitro measurement of aldosterone activity, human adrenocortical carcinoma NCI-H295R cells are seeded in NBS 96-well plates at a density of 25,000 cells/well in 100 μl of a growth medium containing DMEM/F12 supplemented with 10% FCS, 2.5% Nu-serum, 1 μg ITS/ml, and 1× antibiotic/antimycotic. The medium is changed after culturing for 3 days at 37° C. under an atmosphere of 5% CO2/95% air. On the following day, cells are rinsed with 100 μl of DMEM/F12 and incubated with 100 μl of treatment medium containing 1 μM Ang II and a compound at different concentrations in quadruplicate wells at 37° C. for 24 hr. At the end of incubation, 50 μl of medium is withdrawn from each well for measurement of aldosterone production by an RIA using mouse anti-aldosterone monoclonal antibodies.
Measurement of aldosterone activity can also be performed using a 96-well plate format. Each test sample is incubated with 0.02 μCi of D-[1,2,6,7-^3H(N)]aldosterone and 0.3 μg of anti-aldosterone antibody in phosphate-buffered saline (PBS) containing 0.1% Triton X-100, 0.1% bovine serum albumin, and 12% glycerol in a total volume of 200 μl at room temperature for 1 hr. Anti-mouse PVT SPA beads (50 μl) are then added to each well and incubated overnight at room temperature prior to counting in a Microbeta plate counter. The amount of aldosterone in each sample is calculated by comparing with a standard curve generated using known quantities of the hormone.

Row | inhibition at 0.1 µM [1] | IC50 [2] | Compound | 11B1 % I @ 100 nM ([1]; 100 nM)
1 | 100% | 194 nM | CCc1cncn1C1CC(C)(C)c2ccccc21 (stereo not shown) [Compound 22, 1-(3,3-Dimethyl-indan-1-yl)-5-ethyl-1H-imidazole] | –
2 | 93% | 194 nM | CC1(C)C(n2cncc2CO)c2ccccc2S1(=O)=O (stereo not shown) [Compound 24, [3-(2,2-Dimethyl-1,1-dioxo-2,3-dihydro-1H-1lambda*6*-benzo[b]thiophen-3-yl)-3H-imidazol-4-yl]-methanol] | –

The remaining lines, values behind:

Row | Compound | inhibition at 0.1 µM [1] | IC50 [2] | 11B1 % I @ 100 nM ([1]; 100 nM)
3 | COC(=O)c1cncn1C1c2ccccc2OC1(C)C (stereo not shown) [Compound 25, 3-(2,2-Dimethyl-2,3-dihydro-benzofuran-3-yl)-3H-imidazole-4-carboxylic acid methyl ester] | 96% | 46 nM | –
4 | CC(C)OC(=O)c1cncn1C1CCCCc2ccccc21 (stereo not shown) [Compound 26, 3-(6,7,8,9-Tetrahydro-5H-benzocyclohepten-5-yl)-3H-imidazole-4-carboxylic acid isopropyl ester] | 99% | 5 nM | –
5 | spiro[cyclopentane-1,2′-[3′-(7′-methyl-chroman-4′-yl)-3′H-imidazole-4′-carboxylic acid methyl ester]] [Compound 17] | – | 175 nM | 100%
